Test results published in article PMC6256925, “The Anti-HIV Actions of 7- and 10-Substituted Camptothecins” (Molecules, 2009).
≈ marks a conversion by molar mass, not a printed value. Entries after “also recorded” stand apart in the source; their conditions may differ. Read-outs that look alike come from different tables or passages of the source.

What was measured:
[1] = test system: HIV-1; details: freshly infected U937 monocytoid cells; cited from earlier work
[2] = test system: HIV-1; parameters: method as in PMID 9453250; details: latently infected T cell clone; cited from earlier work
[3] = test system: HIV-1; parameters: method as in PMID 11424110; details: by inducing selective apoptosis of HIV infected cells; cited from earlier work
[4] = test system: HIV-1IIIB; test: Syncytia assay (CPE inhibition), HIV-1IIIB in C8166 cells; assay type: cell-based
Method: (§1) In the presence of 100 μL of various concentrations of the tested compound, C8166 cells (4 × 10^5cells/mL) were infected with virus (HIV-1IIIB, HIV-2CBL-20 or HIV-2ROD) at a multiplicity of infection (M.O.I.) of 0.06. The final volume per well was 200 μL. Control assays were performed without the testing compounds in HIV-1 IIIB infected and uninfected cultures. AZT was included as positive control. After three days of culture, the cytopathic effect (CPE) was measured by counting the number of syncytia in each well under an inverted microscope. EC50 was then calculated.

[5] = test system: PBMC; test: MTT-based cytotoxicity assay, PBMC; assay type: cell-based; details: PBMC, MTT
Method: (§2) Cell lines (C8166, H9, H9/HIV-1IIIB, Jurkat, Jurkat/HIV-1IIIB) were maintained in RPMI-1640 supplemented with 10% heat-inactivated newborn calf serum (Gibco, Auckland, New Zealand). The cells used in all experiments were in log-phase growth. PBMC from healthy donors were isolated by Ficoll-Hypaque centrifugation, then incubated in complete medium containing 5μg/mL phytohemagglutinin (PHA) (Sigma) and 50 U/mL human recombinant IL-2 for 72 h prior to use for antiviral assays. The laboratory-derived viruses (HIV-1IIIB, HIV-2ROD, HIV-2CBL-20) were obtained from the Medical Research Council (MRC), AIDS Reagent Project (UK) and the NIH AIDS Research and Reference Reagent Program (USA). The clinically isolated HIV-1KM018 was obtained from a naive HIV-1-infected individual in Yunnan Province, China, as described. The 50% HIV-1 tissue culture infectious dose (TCID50) was determined and calculated by the Reed and Muench method. Virus stocks were stored in aliquots at −70 °C.
(§3) Cellular toxicity of compounds 1–3 was assessed by the MTT method, as described previously. Briefly, cells were seeded on a microtiter plate in the absence or presence of various concentrations of compounds in triplicate and incubated at 37 °C in a humid atmosphere of 5% CO2 for three days. Twenty microliters of MTT reagent (5 mg/mL in PBS) was added to each well, then incubated at 37 °C for 4 h. One hundred microliters of 50% DMF-20% SDS was then added. After the formazan was dissolved completely, the plates were read on a Bio-Tek ELx 800 ELISA reader at 595 nm/630 nm. The results were shown as absorbance values, and the CC50 was calculated.

[6] = test system: C8166; test: MTT-based cytotoxicity assay, C8166; assay type: cell-based; details: C8166, MTT
Method: as §3

[7] = test system: HIV-1KM018; test: Inhibition of HIV-1 p24 antigen production in PBMC; assay type: cell-based
Method: Adequate numbers of PHA activated normal PBMC were incubated with HIV-1KM018 (M.O.I. = 0.03) in presence of varying concentrations of the compound. After 3 h of virus adsorption, the cells were washed twice with PBS and incubated with or without various concentration of compound in culture medium supplemented with 50 U/mL human recombinant IL-2 at 1.2 × 10^6 cells/mL for seven days. Half of the medium was changed with corresponding compound concentrations on the third day. At seven days post-infection, HIV-1 p24 antigen in cell-free culture supernatants was analyzed by ELSIA. The percent inhibition of HIV-1 p24 antigen production in PBMC was calculated.

[8] = test system: equine anemia virus; parameters: method as in PMID 11725078; details: cited from earlier work
[9] = MTT-based cytotoxicity assay, PBMC; assay type: cell-based; details: human
Method: as §2, §3

[10] = MTT-based cytotoxicity assay, C8166; assay type: cell-based; details: human
Method: as §3

[11] = test system: HIV-2ROD; test: Syncytia assay (CPE inhibition), HIV-2ROD in C8166 cells; assay type: cell-based
Method: as §1

[12] = test system: HIV; parameters: method as in PMID 11725078; details: cited from earlier work
[13] = test system: HIV-2CBL-20; test: Syncytia assay (CPE inhibition), HIV-2CBL-20 in C8166 cells; assay type: cell-based
Method: as §1

[14] = target: T1, HIV-1 reverse transcriptase (Human immunodeficiency virus type 1 group M subtype B, UniProt P04585); test: Inhibition assay of recombinant HIV-1 RT activity (ELISA); assay type: biochemical
T1 construct: purchased Roche, Mannheim, Germany
Method: HIV-1 reverse transcriptase (RT) activity was measured by the ELISA RT kit using a commercially available kit (Roche, Mannheim, Germany) according to the instructions of the manufacturer. The compounds were incubated with DIG-labeled reaction mixture at 37 °C for 2 h, then anti-DIG-POD solution was added, followed by substrate ABTS. Foscarnet was used as a positive control. The absorbency at 405 nm/490 nm was read on the Bio-Tek ELx 800 ELISA reader.

[15] = target: T2, HIV-1 integrase (Human immunodeficiency virus type 1 group M subtype B, UniProt P04585); test: Binding to HIV-1 integrase by SPR (BIAcore)
T2 construct: Integrase was immobilized on the surface of the chip
Method: The interaction between the compound and HIV-1 integrase (IN) was determined by SPR using a BIAcore 3000TM biosensor system as previously described. Integrase was immobilized on the surface of the chip. To allow association, various concentrations of the compound diluted in HBS-EP was applied to a chip containing immobilized integrase. Dissociation of the compound from the integrase was monitored in real-time after application of buffer to wash the chip and the kinetic rate constants for dissociation (Kd) was obtained by fitting the real-time data using BIA evaluation software.

[16] = target: T3, HIV-1 protease (Human immunodeficiency virus type 1 group M subtype B, UniProt P04585); test: Inhibition assay of recombinant HIV-1 protease activity (fluorescent); assay type: biochemical
T3 construct: The recombinant HIV-1 protease (PR) was expressed and purified, as previously described; made in house
Method: The recombinant HIV-1 protease (PR) was expressed and purified, as previously described. HIV-1 PR was diluted in reaction buffer. The compounds were added and incubated for 30 min at room temperature. Fluorescent substrate DABCYL-γ-Abu-Ser-Gln-Asn-Tyr-Pro-Ile-Val-Gln-EDANS (Anaspec, San Jose, USA) was added to initiate the reaction. The mixture was allowed to react for 90 min and the change of the fluorescent signal was monitored. Negative (double distilled water) and positive (1 μM indinavir) controls were included. The percent inhibition of PR activity was calculated.

[17] = test system: H9/HIV-1IIIB; test: ELISA in chronically infected H9/HIV-1IIIB cells; assay type: cell-based; details: Human immunodeficiency virus 1
Method: Chronically infected cell with HIV-1IIIB (H9/HIV-1IIIB) were washed three times with PBS to remove free virus particle. 200 µL/well (3 × 10^5 cells/mL) of the cell suspension was cultured for three days in a 96-well culture plate with different concentrations of compound. The p24 antigen in the culture supernatants was assayed by ELISA.

[18] = MTT-based cytotoxicity assay, H9/HIV-1IIIB; assay type: cell-based; details: human, H9/HIV-1IIIB cells; H9/HIV-1IIIB, MTT, 3 days
Method: as §3

[19] = test system: H9/HIV-1IIIB; test: MTT-based cytotoxicity assay, H9/HIV-1IIIB; assay type: cell-based; details: 3 days of incubation; listed as 7-Hydroxymethyl-CPT
Method: as §3

[20] = MTT-based cytotoxicity assay, Jurkat/HIV-1IIIB; assay type: cell-based; details: human, Jurkat/HIV-1IIIB cells
Method: as §3

[21] = test system: HIV-1IIIB/H9; test: Co-cultivation assay (cell-to-cell fusion C8166 with H9/HIV-1IIIB); assay type: cell-based
Method: Cell-to-cell fusion between normal C8166 cells and H9 cells chronically infected withHIV-1IIIB was quantified under an inverted microscope. First, 3 × 10^4 C8166 cells co-cultured with 1 × 10^4 H9/HIV-1IIIB cells in the presence or absence of the compound at varying concentrations. They were incubated at 37 °C in a humidified atmosphere of 5% CO2. Dextran sulfate (DS) was used as positive control. After 6 h incubation, the number of syncytia was scored under an inverted microscope.

[22] = parameters: method as in PMID 12775425; details: cited from earlier work
[23] = Human immunodeficiency virus 1, 72 h, C8166, HIV-1IIIB, syncytia, 3 days, read-out: EC50
[24] = Human immunodeficiency virus 2, 72 h, C8166, HIV-2ROD, syncytia, 3 days, read-out: EC50
[25] = Human immunodeficiency virus 1, 168 h, PBMC, HIV-1KM018, p24, 7 days, read-out: EC50
[26] = Human immunodeficiency virus 2, 72 h, C8166, HIV-2CBL-20, syncytia, 3 days, read-out: EC50
[27] = Human immunodeficiency virus 2, C8166, 72 h
[28] = cell-free system, in words, listed as 7-hydroxymethyl-CPT

For `CC[C@@]1(O)C(=O)OCc2c1cc1n(c2=O)Cc2cc3c([N+](=O)[O-])cccc3nc2-1` [9-nitrocamptothecin (9NC), 9-nitrocamptothecin], the “inhibition of HIV-1 replication” value [1] is listed as “showed inhibition”, the “tumor necrosis factor-mediated activation of HIV-1” value [2] is listed as “inhibited” and the HIV-1 replication [3] is listed as “reduced”.
For `Cc1cn([C@H]2C[C@H](N=[N+]=[N-])[C@@H](CO)O2)c(=O)[nH]c1=O` [AZT, reference compound], the EC50 ([4]; C8166, HIV-1IIIB, syncytia, 3 days) was 0.003 ± 0.0003 µg/mL (≈ 0.0112 µM), the CC50 [5] was 0.45(mg/ml and the CC50 [6] was 1.12(mg/ml). The EC50 ([7]; PBMC, HIV-1KM018, p24, 7 days) was 0.0024 ± 0.0003 µg/mL (≈ 0.00898 µM).
For `CC[C@@]1(O)C(=O)OCc2c1cc1n(c2=O)Cc2cc3ccccc3nc2-1` [Compound 1, Camptothecin], the EC50 [4, 23] is given as 0.0057 ± 0.0001 µg/mL (≈ 0.0164 µM), the “inhibition of replication of equine anemia virus” value [8] is given as “weakly inhibit” and the CC50 at 3 days ([9]; PBMC (peripheral blood mononuclear cells), PHA-stimulated, PBMC, MTT, read-out: CC50) is given as 0.0759 ± 0.0131 µg/mL (≈ 0.218 µM). The CC50 ([6]; 3 days) was 137.8 ± 7.8 ng/mL (≈ 0.396 µM), the CC50 at 3 days ([10]; C8166 cells, C8166, MTT, 3 days, read-out: CC50) was 0.138 µg/mL (≈ 0.396 µM) and the EC50 [11, 24] was 0.0067 ± 0.0001 µg/mL (≈ 0.0192 µM). For the same compound, the “inhibition of replication of HIV” value [12] was “weakly inhibit”, the EC50 [7, 25] was 0.0074 ± 0.0011 µg/mL (≈ 0.0212 µM) and the EC50 [13, 26] was 0.004 ± 0.0003 µg/mL (≈ 0.0115 µM).
For `CC[C@@]1(O)C(=O)OCc2c1cc1n(c2=O)Cc2cc3cc(O)ccc3nc2-1` [Compound 2, 10-hydroxycamptothecin], the EC50 ([4]; Human immunodeficiency virus 1, C8166, 72 h) was 0.0334 ± 0.0003 µg/mL (≈ 0.0917 µM), the CC50 at 3 days ([9]; PBMC, MTT, read-out: CC50) was 0.0363 ± 0.0118 µg/mL (≈ 0.0996 µM) and the CC50 at 3 days ([10]; C8166, MTT, 3 days, read-out: CC50) was 0.141 ± 0.0097 µg/mL (≈ 0.387 µM). For the same compound, the EC50 [11, 27] was 0.025 ± 0.0009 µg/mL (≈ 0.0686 µM), the EC50 ([7]; Human immunodeficiency virus 1, PBMC, 168 h) was 0.0105 ± 0.0004 µg/mL (≈ 0.0288 µM) and the EC50 [13, 27] was 0.0132 ± 0.001 µg/mL (≈ 0.0362 µM).
With `CC[C@@]1(O)C(=O)OCc2c1cc1n(c2=O)Cc2c-1nc1ccccc1c2CO` [Compound 3, 7-Hydroxymethylcamptothecin] the EC50 [4, 23] was 0.0008 ± 0.0002 µg/mL (≈ 0.00211 µM), the EC50 [14] was over 44.9 µM and the “inhibition of reverse transcriptase” value [14, 28] was “no inhibition; also recorded: did not show any inhibition”. The Kd [15] was 64.9 µM, the inhibition of integrase [15, 28] was “no inhibition; also recorded: did not show any inhibition” and the EC50 [16] was over 106 µM. The inhibition of protease [16, 28] was “no inhibition; also recorded: did not show any inhibition”, the CC50 at 3 days [9] was 0.06 ± 0.0101 µg/mL (≈ 0.159 µM) and the CC50 at 3 days [10] was 0.159 ± 0.0137 µg/mL (≈ 0.419 µM). The EC50 [17] was over 17 µg/mL, the CC50 at 3 days [18] was 0.0157 µg/mL (≈ 0.0415 µM) and the “selective killing of chronically infected cells (H9/HIV-1IIIB compared with uninfected H9)” value [19] was “no selective killing”. The CC50 at 3 days [20] was 0.041 µg/mL (≈ 0.108 µM), the EC50 ([21]; Human immunodeficiency virus 1, C8166 with HIV-1IIIB/H9, co-cultivation, 6 h) was over 2 µg/mL and the “inhibition of viral cell-to-cell transmission” value ([21]; in words) was “no inhibition”. It also gave an EC50 [11, 24] of 0.0024 ± 0.0002 µg/mL (≈ 0.00634 µM), an EC50 [7, 25] of 0.0009 ± 0.0001 µg/mL (≈ 0.00238 µM) and an EC50 [13, 26] of 0.0005 ± 0.0001 µg/mL (≈ 0.00132 µM).
In the case of `CC[C@@]1(O)C(=O)OCc2c1cc1n(c2=O)Cc2cc3c(CN(C)C)c(O)ccc3nc2-1` [Topotecan], the “treatment of AIDS-related progressive multifocal leukoencephalopathy” value [22] is given as “efficient”.
